According to ChEMBL document CHEMBL1909046, “DrugMatrix in vitro pharmacology data”:

Key:
Melanocortin receptor 4 = Melanocortin receptor 4 (Homo sapiens, UniProt P32245); format: cell membranes, Membrane; conditions: hek293; also: in other assays of this panel Not Active means under 50% inhibition at 10 µM
Estrogen receptor = target: T1, Estrogen receptor (Homo sapiens, UniProt P03372); conditions: sf9; also: in other assays of this panel Not Active means under 50% inhibition at 10 µM
T1 sequence (P03372 whole entry): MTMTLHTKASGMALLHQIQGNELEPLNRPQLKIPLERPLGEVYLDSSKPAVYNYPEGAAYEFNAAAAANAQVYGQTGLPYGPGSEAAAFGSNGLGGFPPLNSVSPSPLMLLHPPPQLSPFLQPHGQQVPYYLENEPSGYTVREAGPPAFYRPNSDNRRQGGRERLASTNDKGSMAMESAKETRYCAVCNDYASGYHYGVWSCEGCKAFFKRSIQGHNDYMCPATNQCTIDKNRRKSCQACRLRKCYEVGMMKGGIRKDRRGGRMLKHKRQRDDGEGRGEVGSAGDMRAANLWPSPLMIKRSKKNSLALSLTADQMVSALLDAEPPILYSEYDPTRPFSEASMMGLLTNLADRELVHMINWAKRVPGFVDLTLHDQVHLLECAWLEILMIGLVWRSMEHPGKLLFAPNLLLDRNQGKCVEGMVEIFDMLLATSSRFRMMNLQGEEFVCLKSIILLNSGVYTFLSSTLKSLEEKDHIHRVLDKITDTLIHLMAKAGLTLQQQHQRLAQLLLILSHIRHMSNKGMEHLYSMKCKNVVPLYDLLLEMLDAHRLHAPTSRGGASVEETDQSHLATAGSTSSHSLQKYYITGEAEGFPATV

[1] = DRUGMATRIX: Glutamate, Kainate radioligand binding (ligand: [3H] Kainic acid); format: cell membranes, Rattus norvegicus, Wistar, Brain, Membrane; conditions: Not Active = under 50% inhibition at 10 µM
Endothelin-1 receptor = target: T2, Endothelin-1 receptor (Homo sapiens, UniProt P25101); format: cell membranes, CHO-K1, Membrane; conditions: cho-k1; also: in other assays of this panel Not Active means under 50% inhibition at 10 µM
T2 sequence (P25101 whole entry): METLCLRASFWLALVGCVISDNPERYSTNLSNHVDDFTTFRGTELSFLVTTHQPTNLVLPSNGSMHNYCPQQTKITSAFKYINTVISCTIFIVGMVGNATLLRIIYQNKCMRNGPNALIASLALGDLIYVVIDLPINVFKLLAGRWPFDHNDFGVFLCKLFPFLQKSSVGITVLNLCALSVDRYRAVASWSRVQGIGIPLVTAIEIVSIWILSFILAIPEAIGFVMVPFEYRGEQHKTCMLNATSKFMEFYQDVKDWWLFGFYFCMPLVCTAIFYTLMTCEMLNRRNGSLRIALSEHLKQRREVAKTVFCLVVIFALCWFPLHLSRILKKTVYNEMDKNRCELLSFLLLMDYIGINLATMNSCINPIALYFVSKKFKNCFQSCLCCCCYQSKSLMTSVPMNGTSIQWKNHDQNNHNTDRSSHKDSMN

Nitric oxide synthase 1 = Nitric oxide synthase 1 (Rattus norvegicus, UniProt P29476); format: tissue-based, Cerebellum; also: in other assays of this panel Not Active means under 50% inhibition at 10 µM
[2] = target: Tyrosine-protein kinase Fyn (Homo sapiens, UniProt P06241); experiment: biochemical; format: cell-based, Insect cells
Leukotriene C4 synthase = target: T3, Leukotriene C4 synthase (Cavia porcellus, UniProt A6XA80); format: tissue-based, Lung
T3 sequence (A6XA80 whole entry): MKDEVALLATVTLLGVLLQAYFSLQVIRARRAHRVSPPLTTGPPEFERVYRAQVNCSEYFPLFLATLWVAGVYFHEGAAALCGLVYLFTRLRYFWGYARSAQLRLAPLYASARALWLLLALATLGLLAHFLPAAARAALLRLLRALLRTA

Neutrophil elastase = target: T4, Neutrophil elastase (Homo sapiens, UniProt P08246); format: tissue-based
T4 sequence (P08246 whole entry): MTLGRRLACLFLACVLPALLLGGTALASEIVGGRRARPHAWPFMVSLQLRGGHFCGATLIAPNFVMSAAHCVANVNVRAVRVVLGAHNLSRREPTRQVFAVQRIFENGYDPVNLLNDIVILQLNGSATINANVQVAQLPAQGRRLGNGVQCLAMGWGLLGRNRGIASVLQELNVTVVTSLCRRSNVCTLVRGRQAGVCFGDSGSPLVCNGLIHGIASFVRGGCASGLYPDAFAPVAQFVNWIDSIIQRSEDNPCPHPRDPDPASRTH

Cathepsin G = target: T5, Cathepsin G (Homo sapiens, UniProt P08311); format: tissue-based; conditions: neutrophil
T5 sequence (P08311 whole entry): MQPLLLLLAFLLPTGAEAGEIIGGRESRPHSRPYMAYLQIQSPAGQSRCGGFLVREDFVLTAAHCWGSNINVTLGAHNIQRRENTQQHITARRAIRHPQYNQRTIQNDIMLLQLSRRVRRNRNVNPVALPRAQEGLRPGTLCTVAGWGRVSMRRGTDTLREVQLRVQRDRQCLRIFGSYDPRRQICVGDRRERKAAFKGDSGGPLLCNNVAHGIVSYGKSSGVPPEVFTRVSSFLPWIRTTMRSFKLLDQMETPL

Melanocortin receptor 4, sequence (P32245 whole entry): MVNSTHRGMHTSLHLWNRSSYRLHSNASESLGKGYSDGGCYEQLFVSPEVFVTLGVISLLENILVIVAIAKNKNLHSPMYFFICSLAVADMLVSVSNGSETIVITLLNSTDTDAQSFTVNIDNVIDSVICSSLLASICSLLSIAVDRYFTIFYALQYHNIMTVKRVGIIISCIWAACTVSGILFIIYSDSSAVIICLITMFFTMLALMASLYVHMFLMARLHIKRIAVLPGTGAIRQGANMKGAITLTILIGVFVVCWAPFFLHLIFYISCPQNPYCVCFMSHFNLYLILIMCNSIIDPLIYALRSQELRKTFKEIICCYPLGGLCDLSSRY
Nitric oxide synthase 1, sequence (P29476 whole entry): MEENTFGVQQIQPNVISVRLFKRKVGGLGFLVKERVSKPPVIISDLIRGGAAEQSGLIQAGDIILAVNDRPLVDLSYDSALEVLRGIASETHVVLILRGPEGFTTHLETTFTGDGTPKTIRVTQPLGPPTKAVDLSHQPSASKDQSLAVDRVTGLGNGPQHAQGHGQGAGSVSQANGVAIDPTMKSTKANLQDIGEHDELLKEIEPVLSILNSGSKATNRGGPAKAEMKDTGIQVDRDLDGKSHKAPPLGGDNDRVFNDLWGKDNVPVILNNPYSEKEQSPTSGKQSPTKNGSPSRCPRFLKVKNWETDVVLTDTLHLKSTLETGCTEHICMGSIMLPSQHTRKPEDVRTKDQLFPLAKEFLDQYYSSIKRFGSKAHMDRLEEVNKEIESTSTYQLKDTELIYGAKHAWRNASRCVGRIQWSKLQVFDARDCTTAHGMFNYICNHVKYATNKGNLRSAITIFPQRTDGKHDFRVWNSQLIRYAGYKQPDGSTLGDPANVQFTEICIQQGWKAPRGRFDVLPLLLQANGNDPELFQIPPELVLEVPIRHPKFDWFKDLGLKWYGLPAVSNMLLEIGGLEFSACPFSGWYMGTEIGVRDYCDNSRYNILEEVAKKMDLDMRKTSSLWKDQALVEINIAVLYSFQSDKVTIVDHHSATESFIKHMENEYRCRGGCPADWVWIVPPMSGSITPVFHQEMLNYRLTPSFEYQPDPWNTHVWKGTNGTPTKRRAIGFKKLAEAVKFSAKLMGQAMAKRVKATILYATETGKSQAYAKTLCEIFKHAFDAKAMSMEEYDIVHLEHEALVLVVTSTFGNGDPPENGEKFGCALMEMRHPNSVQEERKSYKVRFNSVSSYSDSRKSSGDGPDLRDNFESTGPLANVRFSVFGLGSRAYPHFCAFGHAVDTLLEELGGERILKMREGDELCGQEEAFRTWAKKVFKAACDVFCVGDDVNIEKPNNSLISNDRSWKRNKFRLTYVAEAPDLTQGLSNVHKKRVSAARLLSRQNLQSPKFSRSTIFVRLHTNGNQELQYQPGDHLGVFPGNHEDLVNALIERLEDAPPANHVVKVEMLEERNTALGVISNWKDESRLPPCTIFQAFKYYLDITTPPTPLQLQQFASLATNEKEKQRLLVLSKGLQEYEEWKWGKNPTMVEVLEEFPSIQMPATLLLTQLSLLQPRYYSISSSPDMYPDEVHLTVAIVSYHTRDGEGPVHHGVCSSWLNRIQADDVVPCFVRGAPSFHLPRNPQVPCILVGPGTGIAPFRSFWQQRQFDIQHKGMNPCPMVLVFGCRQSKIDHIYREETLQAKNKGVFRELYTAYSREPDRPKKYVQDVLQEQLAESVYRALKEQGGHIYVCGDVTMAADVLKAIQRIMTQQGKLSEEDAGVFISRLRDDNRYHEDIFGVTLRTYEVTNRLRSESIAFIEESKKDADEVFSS
Tyrosine-protein kinase Fyn, sequence (P06241 whole entry): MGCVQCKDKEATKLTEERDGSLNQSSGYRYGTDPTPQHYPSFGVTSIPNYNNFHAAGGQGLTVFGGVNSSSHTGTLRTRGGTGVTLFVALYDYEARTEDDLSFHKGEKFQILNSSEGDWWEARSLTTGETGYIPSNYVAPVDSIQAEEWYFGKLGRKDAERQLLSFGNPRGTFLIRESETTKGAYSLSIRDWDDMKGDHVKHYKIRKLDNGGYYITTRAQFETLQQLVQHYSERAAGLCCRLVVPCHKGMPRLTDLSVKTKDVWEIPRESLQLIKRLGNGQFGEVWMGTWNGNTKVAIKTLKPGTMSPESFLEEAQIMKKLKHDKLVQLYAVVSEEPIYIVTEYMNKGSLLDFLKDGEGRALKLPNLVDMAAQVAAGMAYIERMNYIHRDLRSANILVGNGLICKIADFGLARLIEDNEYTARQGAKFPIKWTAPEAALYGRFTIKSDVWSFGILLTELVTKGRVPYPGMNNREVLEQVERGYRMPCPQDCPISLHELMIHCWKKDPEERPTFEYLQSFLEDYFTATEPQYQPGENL

CCCCCC[C@H]1C(=O)O[C@H](C)[C@H](NC(=O)c2cccc(NC=O)c2O)C(=O)O[C@@H](C)[C@@H]1OC(=O)CC(C)C [ANTIMYCIN A]
IC50 (Melanocortin receptor 4): Not Active
IC50 (Estrogen receptor): Not Active
IC50 [1]: Not Active
Ki [1]: Not Active
IC50 (Endothelin-1 receptor): Not Active
IC50 (Nitric oxide synthase 1): Not Active
IC50 ([2]; insect cells): Not Active
IC50 (Leukotriene C4 synthase): Not Active
IC50 (Neutrophil elastase): Not Active
IC50 (Cathepsin G): Not Active

Cc1cnc(C(=O)NCCc2ccc(S(=O)(=O)NC(=O)NC3CCCCC3)cc2)cn1 [GLIPIZIDE]
IC50 (Melanocortin receptor 4): Not Active
IC50 (Estrogen receptor): Not Active
IC50 [1]: Not Active
Ki [1]: Not Active
IC50 (Endothelin-1 receptor): Not Active
IC50 (Nitric oxide synthase 1): Not Active
IC50 ([2]; insect cells): Not Active
IC50 (Leukotriene C4 synthase): Not Active
IC50 (Neutrophil elastase): Not Active
IC50 (Cathepsin G): Not Active

O=c1cc(-c2ccccc2)oc2ccc3ccccc3c12 [BETA-NAPHTHOFLAVONE]
IC50 (Melanocortin receptor 4): Not Active
IC50 (Estrogen receptor): Not Active
IC50 [1]: Not Active
Ki [1]: Not Active
IC50 (Endothelin-1 receptor): Not Active
IC50 (Nitric oxide synthase 1): Not Active
IC50 ([2]; read-out: IC50): 2.51 µM
IC50 (Leukotriene C4 synthase): Not Active
IC50 (Neutrophil elastase): Not Active
IC50 (Cathepsin G): Not Active

CCN[C@@H](C)Cc1cccc(C(F)(F)F)c1 [DEXFENFLURAMINE]
IC50 (Melanocortin receptor 4): Not Active
IC50 (Estrogen receptor): Not Active
IC50 [1]: Not Active
Ki [1]: Not Active
IC50 (Endothelin-1 receptor): Not Active
IC50 (Nitric oxide synthase 1): Not Active
IC50 ([2]; insect cells): Not Active
IC50 (Leukotriene C4 synthase): Not Active
IC50 (Neutrophil elastase): Not Active
IC50 (Cathepsin G): Not Active

Nn1nnc2ccccc21
IC50 (Melanocortin receptor 4): Not Active
IC50 (Estrogen receptor): Not Active
IC50 [1]: Not Active
Ki [1]: Not Active
IC50 (Endothelin-1 receptor): Not Active
IC50 (Nitric oxide synthase 1): Not Active
IC50 ([2]; insect cells): Not Active
IC50 (Leukotriene C4 synthase): Not Active
IC50 (Neutrophil elastase): Not Active
IC50 (Cathepsin G): Not Active

O=C(O)Cc1ccc(-c2ccccc2)cc1 [FELBINAC]
IC50 (Melanocortin receptor 4): Not Active
IC50 (Estrogen receptor): Not Active
IC50 [1]: Not Active
Ki [1]: Not Active
IC50 (Endothelin-1 receptor): Not Active
IC50 (Nitric oxide synthase 1): Not Active
IC50 ([2]; insect cells): Not Active
IC50 (Leukotriene C4 synthase): Not Active
IC50 (Neutrophil elastase): Not Active
IC50 (Cathepsin G): Not Active
